ChEMBL document CHEMBL5634174, “Biological evaluation of sulfonate and sulfate analogues of lithocholic acid: A bioisosterism-guided approach towards the discovery of potential sialyltransferase inhibitors for antimetastatic study” (Bioorg Med Chem Lett, 2024)
Calls of active or inactive are those of the source. The calls are words filed in the database; no cut-off is given here.

Columns and labels:
[1] = target: T1, CMP-N-acetylneuraminate-beta-galactosamide-alpha-2,3-sialyltransferase 1 (Mus musculus, UniProt P54751); assay: Inhibition of mouse brain ST3Gal1 expressed in COS-7 cells using CMP-[14C]NeuAc as substrate assessed as inhibition of constant incubated for 30 mins in presence of Galbeta1,3GalNAcOBzl by Lineweaver-Burk plot analysis
T1 sequence (P54751 whole entry): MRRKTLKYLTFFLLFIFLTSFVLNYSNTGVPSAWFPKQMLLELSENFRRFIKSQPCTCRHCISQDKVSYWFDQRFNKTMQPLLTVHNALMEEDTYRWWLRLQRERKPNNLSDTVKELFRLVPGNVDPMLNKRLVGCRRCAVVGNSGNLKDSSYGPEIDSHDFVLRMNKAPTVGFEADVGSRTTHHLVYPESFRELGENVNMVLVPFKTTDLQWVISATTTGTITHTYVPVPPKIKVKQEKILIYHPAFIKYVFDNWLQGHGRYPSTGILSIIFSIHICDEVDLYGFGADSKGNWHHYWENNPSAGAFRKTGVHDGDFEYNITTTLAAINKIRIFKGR

[2] = target: T2, CMP-N-acetylneuraminate-beta-1,4-galactoside alpha-2,3-sialyltransferase (Homo sapiens, UniProt Q11203); assay: Inhibition of ST3GAL3 (unknown origin)
T2 sequence (Q11203 whole entry): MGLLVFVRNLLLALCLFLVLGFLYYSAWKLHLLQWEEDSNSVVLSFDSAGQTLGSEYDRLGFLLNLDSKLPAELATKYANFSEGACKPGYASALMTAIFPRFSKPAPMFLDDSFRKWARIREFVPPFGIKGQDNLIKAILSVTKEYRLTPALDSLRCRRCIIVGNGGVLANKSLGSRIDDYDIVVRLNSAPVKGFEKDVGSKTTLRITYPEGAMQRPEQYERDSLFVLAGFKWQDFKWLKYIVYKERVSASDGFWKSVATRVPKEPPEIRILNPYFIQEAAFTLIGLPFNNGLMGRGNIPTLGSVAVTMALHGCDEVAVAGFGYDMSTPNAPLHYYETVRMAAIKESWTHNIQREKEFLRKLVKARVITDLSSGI

[3] = target: T3, CMP-N-acetylneuraminate-beta-galactosamide-alpha-2,3-sialyltransferase 1 (Homo sapiens, UniProt Q11201); assay: Inhibition of ST3GAL1 (unknown origin)
T3 sequence (Q11201 whole entry): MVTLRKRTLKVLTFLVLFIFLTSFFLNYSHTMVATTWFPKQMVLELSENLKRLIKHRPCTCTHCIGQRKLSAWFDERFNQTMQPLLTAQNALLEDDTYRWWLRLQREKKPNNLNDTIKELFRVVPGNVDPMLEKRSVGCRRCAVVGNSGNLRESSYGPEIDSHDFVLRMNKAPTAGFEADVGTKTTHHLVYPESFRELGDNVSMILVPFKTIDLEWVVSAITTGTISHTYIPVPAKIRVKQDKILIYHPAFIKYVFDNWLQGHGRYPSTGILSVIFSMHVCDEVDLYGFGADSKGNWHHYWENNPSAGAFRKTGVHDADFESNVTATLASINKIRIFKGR

[4] = target: T4, Beta-galactoside alpha-2,6-sialyltransferase 1 (Homo sapiens, UniProt P15907); assay: Inhibition of ST6GAL1 (unknown origin)
T4 sequence (P15907 whole entry): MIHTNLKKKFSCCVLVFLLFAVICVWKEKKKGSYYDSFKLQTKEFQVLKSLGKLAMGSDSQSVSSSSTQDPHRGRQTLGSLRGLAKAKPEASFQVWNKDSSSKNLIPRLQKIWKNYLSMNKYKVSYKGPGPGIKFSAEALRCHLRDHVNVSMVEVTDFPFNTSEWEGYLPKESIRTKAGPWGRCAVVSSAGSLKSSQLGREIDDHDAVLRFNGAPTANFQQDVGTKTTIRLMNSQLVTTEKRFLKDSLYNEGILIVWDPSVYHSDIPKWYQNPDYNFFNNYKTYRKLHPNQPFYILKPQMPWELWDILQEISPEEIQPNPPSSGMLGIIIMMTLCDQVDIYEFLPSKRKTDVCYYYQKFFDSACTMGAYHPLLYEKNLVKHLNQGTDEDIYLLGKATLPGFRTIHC

[5] = target: T5, Beta-galactoside alpha-2,6-sialyltransferase 1 (Homo sapiens) (UniProt P15907); assay: Inhibition of recombinant human N-terminal His tagged ST6GAL1 (44 to 406 residues) at 50 uM by UPLC-based assay relative to control
T5 sequence (whole entry): T4 sequence (P15907 whole entry)

[6] = target: T4, Beta-galactoside alpha-2,6-sialyltransferase 1; assay: Inhibition of recombinant human N-terminal His tagged ST6GAL1 (44 to 406 residues) by UPLC-based assay
[7] = target: T6, Sialyltransferase ST3Gal-I (Rattus norvegicus) (UniProt Q6H8N0); assay: Inhibition of rat ST3GAL1 at 500 uM by UPLC-based assay relative to control
T6 sequence (whole entry): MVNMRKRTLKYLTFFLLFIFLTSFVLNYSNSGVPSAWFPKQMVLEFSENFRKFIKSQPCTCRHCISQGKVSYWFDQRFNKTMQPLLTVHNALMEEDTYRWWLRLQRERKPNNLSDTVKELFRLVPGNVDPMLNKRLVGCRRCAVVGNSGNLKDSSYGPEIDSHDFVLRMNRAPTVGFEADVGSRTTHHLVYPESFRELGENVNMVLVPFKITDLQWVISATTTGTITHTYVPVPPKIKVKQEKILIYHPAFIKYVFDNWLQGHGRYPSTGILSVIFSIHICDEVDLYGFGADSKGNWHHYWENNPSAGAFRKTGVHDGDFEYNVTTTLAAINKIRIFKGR

[8] = target: T6, Sialyltransferase ST3Gal-I (Rattus norvegicus); assay: Inhibition of rat ST3GAL1 at 1000 uM by UPLC-based assay relative to control
[9] = target: T7, Sialyltransferase ST3Gal-I (Rattus norvegicus, UniProt Q6H8N0); assay: Inhibition of rat ST3GAL1 by UPLC-based assay
T7 sequence (Q6H8N0 whole entry): T6 sequence (whole entry)

[10] = Selectivity index, ratio of IC50 for inhibition of rat ST3GAL1 to IC50 for inhibition of human ST6GAL1
MDA-MB-231 [11] = assay: Antimigratory activity against human MDA-MB-231 cells at 60 uM incubated for 16 hrs by transwell migration assay; format: functional, cell-based
MDA-MB-231 [12] = assay: Inhibition of cell invasion in human MDA-MB-231 cells assessed as reduction in cell adhesion to collagen IV at 60 uM incubated for 48 hrs; format: functional, cell-based
MDA-MB-231 [13] = assay: Inhibition of cell invasion in human MDA-MB-231 cells assessed as reduction in cell adhesion to fibronectin at 60 uM incubated for 24 hrs; format: functional, cell-based
MDA-MB-231 [14] = assay: Inhibition of cell invasion in human MDA-MB-231 cells assessed as reduction in cell adhesion at 60 uM after 48 hrs; format: functional, cell-based
[15] = target: T4, Beta-galactoside alpha-2,6-sialyltransferase 1; assay: Inhibition of human ST6GAL1 in the Galbeta1,4GlcNAcbeta-4,5-dimethoxy-2-nitrobenzyl
MDA-MB-231 [16] = assay: Antiproliferative activity against human MDA-MB-231 cells assessed as cell viability at 80 uM by MTT assay; format: functional, cell-based

Row | SMILES | inhibition [5] | IC50 [6] | inhibition [7] | inhibition [8] | IC50 [9] | also measured
1 | C[C@@H]1O[C@@H](O[C@H]2[C@H](O[C@H]3[C@H](O[C@H]4CC[C@@]5(C)[C@@H](CC[C@]6(C)[C@@H]5CC=C5[C@@H]7CC(C)(C)C[C@@H](O)[C@]7(C)CC[C@]56C)[C@@]4(C)CO)O[C@H](C(=O)O)[C@@H](O)[C@@H]3O)O[C@H](CO)[C@H](O)[C@@H]2O)[C@H](O)[C@H](O)[C@H]1O [SOYASAPONIN I] | – | – | – | – | – | Ki [1]: 2.3 µM
2 | C[C@H](CCC(=O)O)[C@H]1CC[C@H]2[C@@H]3CC[C@@H]4C[C@H](OC(=O)[C@H](CC(=O)O)Nc5ccc([N+](=O)[O-])c6nonc56)CC[C@]4(C)[C@H]3CC[C@]12C | – | – | – | – | – | IC50 [2]: 0.88 µM; IC50 [3]: 13 µM; IC50 [4]: 1.5 µM
3 | C[C@H](CCCOS(=O)(=O)O)[C@H]1CC[C@H]2[C@@H]3CC[C@@H]4C[C@H](OS(=O)(=O)O)CC[C@]4(C)[C@H]3CC[C@]12C | 100% | 21.5 µM | 90% | 100% | 402 µM | Ratio IC50 [10]: 19; Activity (MDA-MB-231 [11]): Active; inhibition (MDA-MB-231 [12]): Active; inhibition (MDA-MB-231 [13]): Active; inhibition (MDA-MB-231 [14]): inactive
4 | C[C@H](CCC(=O)NCCS(=O)(=O)O)[C@H]1CC[C@H]2[C@@H]3CC[C@@H]4C[C@H](O)CC[C@]4(C)[C@H]3C[C@H](O)[C@]12C [TAURODEOXYCHOLIC ACID] | 0% | > 50 µM | 3% | – | > 500 µM | –
5 | C[C@H](CCC(=O)O)[C@H]1CC[C@H]2[C@@H]3CC[C@@H]4C[C@H](O)CC[C@]4(C)[C@H]3CC[C@]12C [LITHOCHOLIC ACID] | 0% | > 50 µM | 53% | 64% | 500 µM | –
6 | C[C@H](CCC(=O)O)[C@H]1CC[C@H]2[C@@H]3CC[C@@H]4C[C@H](OC(=O)[C@@H](N)CC(=O)O)CC[C@]4(C)[C@H]3CC[C@]12C | – | – | – | – | – | IC50 [15]: 17 µM
7 | C[C@H](CCCS(=O)(=O)O)[C@H]1CC[C@H]2[C@@H]3CC[C@@H]4C[C@H](O)CC[C@]4(C)[C@H]3CC[C@]12C | 100% | 18.5 µM | 5% | 40% | > 1000 µM | Ratio IC50 [10]: > 54; Activity (MDA-MB-231 [11]): Active
8 | C[C@H](CCC(=O)O)[C@H]1CC[C@H]2[C@@H]3C[C@H](O)[C@@H]4C[C@H](O)CC[C@]4(C)[C@H]3CC[C@]12C [HYODEOXYCHOLIC_ACID] | 0% | > 50 µM | 7% | – | > 500 µM | –
9 | C[C@H](CCC(=O)O)[C@H]1CC[C@H]2[C@@H]3CC[C@@H]4C[C@H](OS(=O)(=O)O)CC[C@]4(C)[C@H]3CC[C@]12C | 0% | > 50 µM | 23% | 82% | 500 µM | –
10 | C[C@H](CCCS(=O)(=O)O)[C@H]1CC[C@H]2[C@@H]3CC[C@@H]4C[C@H](OS(=O)(=O)O)CC[C@]4(C)[C@H]3CC[C@]12C | 0% | > 50 µM | 35% | 100% | 500 µM | Activity (MDA-MB-231 [16]): Active
11 | C[C@H](CCC(=O)O)[C@H]1CC[C@H]2[C@@H]3[C@H](O)C[C@@H]4C[C@H](O)CC[C@]4(C)[C@H]3CC[C@]12C [CHENODIOL] | 0% | > 50 µM | 6% | – | > 500 µM | –
12 | C[C@H](CCC(=O)O)[C@H]1CC[C@H]2[C@@H]3[C@@H](O)C[C@@H]4C[C@H](O)CC[C@]4(C)[C@H]3CC[C@]12C [URSODIOL] | 0% | > 50 µM | 3% | – | > 500 µM | –
